Molecules are shown by their SMILES. Marks after values point to notes of the source that are not given here.

The results in this text go back to US20040219238A1, “Remedies” (priority 2001, published 2004).

A short description of data set [1]: Water maze test in rats with ibotenic acid-induced learning and memory disorder. The settings on record: forced oral 10 mg/kg once a day, average ± standard error, n=9. The format is in vivo, rat (Wistar). The procedure:
Male Wistar rats were purchased from Japan SLC, Inc., and used for an experiment from 7-week old after preliminary rearing. Ibotenic acid was administered intracerebrally to cause a learning and memory disorder. Nine rats were used for each group, and administration was begun one week after the administration of ibotenic acid. Xanthohumol of Example 1 was suspended in distilled water, and the rats were subjected to forced oral administration with the suspension at a ratio of 10 mg of xanthohumol per 1 kg of body weight. A control group was administered with distilled water in the same manner as above. The rats were administered once a day for consecutive days. A water maze test was carried out on and after the seventh day from the beginning of the administration to evaluate ability of recognizing spaces and directions.
The water maze test method was carried out as follows. Water of about 22° C. was charged in a large-scaled water vessel. A platform was set at a height of 2 cm below the water level, and rats were made to enter into water. The rats in water swim around so as to escape from water and take refuge in the platform. The time period from entering into water to taking refuge in the platform was recorded. After taking the refuge, the rats were made to observe surrounding environments on the platform. […]

Data set [2] has as its system NGF. Kind of data set: NGF content in rat tissues after forced oral administration of xanthohumol (enzyme immunoassay). Format: in vivo, rat (SD). The settings on record: excised on fifth day, average ± standard error, n=4. Here is the method: (§1) (2) Male SD rats were purchased from Japan SLC, Inc., and used for an experiment from 7-week old after preliminary rearing. Xanthohumol described in Example 1 was suspended in distilled water, and the rats were subjected to forced oral administration of the suspension at a ratio of 3 and 10 mg of xanthohumol respectively per 1 kg of body weight. In addition, the suspension was intraperitoneally administered at a ratio of 1, 3 or 10 mg of xanthohumol. A control group was administered with distilled water in the same manner as above. In either group, four rats were administered once a day for consecutive days. In the case of the forced oral administration, the submandibular gland and the brain were excised on the fifth day from the beginning of administration. In the case of the intraperitoneal administration, ischiadic nerve and gastrocneminal muscle were excised at 4 hours after the end of administration on the third day. The excised tissues were homogenized and centrifuged, and the NGF contents in the supematant were determined by enzyme immunoassay method (manufactured by Roche).
(§2) The numbers in the tables represent an average value ± standard error for the four cases. In addition, an asterisk * symbol means that the group has a significant difference at a significance level of 5% or less as compared to the control group according to Student-t test, and a triple asterisk *** symbol means that the group similarly has a significant difference at a significance level of 0.1% or less.

Data set [3] is classed as in vivo. The conditions noted are these: mouse, 1 g/kg in a single dose. Here is the method:
No toxicity is found even when the above-mentioned effective ingredient usable in the present invention is administered in an amount effective for the exhibition of its action.

Data set [4] has as its system NGF. Description: NGF content in rat tissues after intraperitoneal administration of xanthohumol (enzyme immunoassay). The settings on record: excised 4 hours after administration on third day, average ± standard error. Format: in vivo, rat (SD). Here is the method: as §1, §2
The mark [5] stands for this setting: forced oral 10 mg/kg once a day.
The mark [6] stands for this setting: intraperitoneal 1 mg/kg once a day.
[7] abbreviates: intraperitoneal 3 mg/kg once a day.
The mark [8] stands for this setting: intraperitoneal 10 mg/kg once a day.

For `COc1cc(O)c(CC=C(C)C)c(O)c1C(=O)/C=C/c1ccc(O)cc1` [Xanthohumol, xanthohumol], the “Time Period from entering water to taking refuge in the platform, First Trial” value in data set [1] (on and after seventh day) was determined as 140.7 ± 14.7 s. In data set [1] (second trial on next day), the “Time Period from entering water to taking refuge in the platform, Second Trial” value stood at 71.3 ± 10.8 s. The “NGF Content in Brain of Rat” value in data set [2] (forced oral 3 mg/kg once a day) is 508.2 ± 95.1 pg/g tissue; in data set [2] (setting [5]), 524.9 ± 200.7 pg/g tissue. Also, the “NGF Content in Submandibular Gland of Rat” value in data set [2] (forced oral 3 mg/kg once a day) was 8.88 ± 0.98*** ng/g tissue; in data set [2] (setting [5]), 13.39 ± 0.65*** ng/g tissue. Besides, the cases of deaths result in data set [3] is “no cases of deaths are found”. The “NGF Content in Gastrocneminal Muscle of Rat” value in data set [4] (setting [6]) came out at 48.0 ± 3.4 pg/g tissue; in data set [4] (setting [7]), 53.9 ± 4.0 pg/g tissue; in data set [4] (setting [8]), 56.8 ± 3.3 pg/g tissue. Further, the “NGF Content in Ischiadic Nerve of Rat” value in data set [4] (setting [6]) was 386.4 ± 30.1* pg/g tissue; in data set [4] (setting [7]), 351.6 ± 26.8 pg/g tissue; in data set [4] (setting [8]) it was 445.7 ± 59.1 pg/g tissue.
